The source of these data is US20200140446A1, “5,8-DIMETHYL-2-[2-(1-METHYL-4-PHENYL-1H-IMIDAZOL-2-YL)-ETHYL]-[1,2,4]TRIAZOLO[1,5-A]PYRAZINE HEMIADIPATE” (H. Lundbeck A/S, priority 2018, published 2020).

Marks after values point to notes of the source that are not given here.

The nature of series [1]: Dynamic Vapour Sorption (DVS), hygroscopicity. Type of series: physicochemical. To be noted: for Hygroscopic (Yes/No): summary of solid forms of Compound (I), Table 2; for hygroscopicity (DVS conclusion): RH 0% to 95%, 25° C. An excerpt: The vapour sorption can be investigated by DVS analysis.
The vapour sorption was investigated by DVS analysis.

Series [2] can be described thus: Hydrate formation (precipitation from water / storage at 95% RH, XRPD). It counts as physicochemical. To be noted: for Hydrate formation (Yes/No): summary of solid forms of Compound (I), Table 2. The source says: To determine whether the Compound (I) hemiadipate are prone to form hydrates it was investigated if precipitation from water equilibrated over 7 days led to a new crystal form. In addition, it was explored if storage of Compound (I) hemiadipate at 95% RH for 5 months led to change in the crystal form.

The nature of series [3]: Solvate formation (shake-flask precipitation in organic solvents, XRPD). It counts as physicochemical. Particulars: 16 organic solvents, equilibration for 4 days. An excerpt:
To determine whether the Compound (I) hemiadipate forms solvates it was investigated if solvate formation could be observed from precipitation in different organic solvents after equilibration for 4 days in the shake-flask method: Compound (I) hemiadipate was precipitated in various organic solvents from a 1:1 mixture of Compound (I) and adipic acid. The tested solvents were: acetone, acetonitrile, methanol, ethanol, 1-propanol, 2-propanol, 1-butanol, 2-butanol, ethyl acetate, isopropyl acetate, methyl isobutyl ketone, tetrahydrofuran, diethylether, N-methylpyrrolidone, dichloromethane, and n-heptane.

The nature of series [4]: Intrinsic Dissolution Rate (IDR). Particulars: 37° C., 10 mg tablet, duplicates. Type of series: physicochemical. How it is done:
Tablets of 10 mg Compound (I) (free base or hemiadipate) were pressed and put into a micro dissolution chamber. It was subsequently measured how fast the substance was dissolved from the well-defined surface of the tablet into the solvent. The length of a full dissolution experiment was 20 min and the IDR was calculated in the range 1-2.5 min, determined as the slope of the dissolution profile in that specific range. The experiment at pH 2 was performed in 0.01 N HCl, at pH 5 in 50 mM acetate buffer and at pH 6.8 in 50 mM phosphate buffer, respectively, all at 37° C. All experiments were performed in duplicates.
Where the tablet was not fully dissolved after end of experiment, the surface was examined by XRPD, to identify if any changes of solid form have occurred during the experiment.

Another series relates to rats. In words: Conditioned Avoidance Response (CAR) in rats, high dopamine state. Type of series: in vivo. The source says:
The inventors of the present invention put forward the hypothesis that many patients with exacerbated positive symptoms can be expected to have increased striatal dopamine levels. Since the dopamine receptors regulate the dopamine signal by controlling cAMP synthesis and PDE10A regulates the gain of this signal by controlling cAMP degradation, the effect of PDE10A inhibition might be altered in conditions with increased striatal dopamine tonus, such as found in patients with prominent positive symptoms. To investigate this further the effect of compounds of the invention were tested in the CAR assay in rats that were co-dosed with a low dose of d-amphetamine (0.20-0.25 mg/kg) to induce a high dopamine state (FIG. 4). […] Compound (I) was tested alone and in combination with a low dose d-amphetamine to induce a high dopamine state. The efficacy was measured as the mean number of avoidances and results are depicted as mean+/−SEM. […] Bars represent the following dose groups (left to right): 1) Vehicle; 2) d-amphetamine (0.2 mg/kg); 3) Compound (I) (0.6 mg/kg); 4) Compound (I) (0.3 mg/kg)+d-amphetamine (0.2 mg/kg); 5) Compound (I) (0.6 mg/kg)+d-amphetamine (0.2 mg/kg); and 6) Compound (I) (3.0 mg/kg)+d-amphetamine (0.2 mg/kg). ** p<0.01 compared to vehicle. ns=non-significant.

For the compound `O=C(O)CCC(=O)C(=O)O` [2-oxoglutarate], the “Hygroscopic (Yes/No)” value in series [1] is reported as “Yes”. Further, in series [2], the “Hydrate formation (Yes/No)” value is recorded as “Yes”.
For the compound `Cc1ncc(C)n2nc(CCc3nc(-c4ccccc4)cn3C)nc12` [Compound (I) hemiadipate, 5,8-Dimethyl-2-[2-(1-methyl-4-phenyl-1H-imidazol-2-yl)-ethyl]-[1,2,4]triazolo[1,5-a]pyrazine hemiadipate], the vapour sorption result in series [1] (DVS, 95% RH at 25° C.) is recorded as “less than 0.1%”. Also, the “hygroscopicity (DVS conclusion)” value in series [1] (DVS) is reported as “non-hygroscopic”. Also, in series [1], the “Hygroscopic (Yes/No)” value was “No”. The “change of crystal form after storage at 95% RH” value in series [2] (95% RH for 5 months, XRPD) is given as “had not changed from the original form”. In series [2], the “Hydrate formation (Yes/No)” value is given as “No”. Besides, in series [2] (water, equilibrated over 7 days, XRPD), the “change of crystal form after precipitation from water” value was “had not changed from the original form”. In addition, in series [3], the solvate formation result is reported as “does not form solvates”. For the same compound, the “IDR Average” value in series [4] (pH 2, 0.01 N HCl) is recorded as >2* mg/cm^2 × min; in series [4] (pH 5, 50 mM acetate buffer), 0.3 mg/cm^2 × min; in series [4] (pH 6.8, 50 mM phosphate buffer), 0.04 mg/cm^2 × min.
As for `Cc1ncc(C)n2nc(CCc3nc(-c4ccccc4)cn3C)nc12` [Compound (I), 5,8-Dimethyl-2-[2-(1-methyl-4-phenyl-1H-imidazol-2-yl)-ethyl]-[1,2,4]triazolo[1,5-a]pyrazine], the “hygroscopicity (DVS conclusion)” value in series [1] (DVS, listed as free base) is “very hygroscopic”. Moreover, the “Hygroscopic (Yes/No)” value in series [1] (listed as Free base) was “Yes”. Besides, the “Hydrate formation (Yes/No)” value in series [2] (listed as Free base) is listed as “Yes”. The “IDR Average” value in series [4] (pH 2, 0.01 N HCl, listed as Compound (I) free base) came out at 1.45 mg/cm^2 × min; in series [4] (pH 5, 50 mM acetate buffer, listed as Compound (I) free base), 0.101 mg/cm^2 × min; in series [4] (pH 6.8, 50 mM phosphate buffer, listed as Compound (I) free base), 0.025 mg/cm^2 × min. In addition, the “effect on CAR (mean number of avoidances), combined with d-amphetamine” value in the series with rats (Compound (I) 0.3, 0.6, 3.0 mg/kg + d-amphetamine 0.2 mg/kg (high dopamine state)) was “this effect was abolished”. For the same compound, the “effect on CAR (mean number of avoidances), dosed alone” value in the series with rats (Compound (I) alone (0.6 mg/kg), ** p<0.01 compared to vehicle) is recorded as “reduced CAR”.
Take `Cc1ncc(C)n2nc(CCc3nc(-c4ccccc4)cn3C)nc12.O=C[C@H](O)[C@@H](O)[C@H](O)[C@H](O)C(=O)O` [D-glucoronate]: in series [1], the “Hygroscopic (Yes/No)” value is “Yes”. In addition, the “Hydrate formation (Yes/No)” value in series [2] is on record as “Yes”.
As to `O=P(O)(O)O` [Dihydrogen Phosphate], the “Hydrate formation (Yes/No)” value in series [2] is recorded as “Yes”.
As for `Br.Cc1ncc(C)n2nc(CCc3nc(-c4ccccc4)cn3C)nc12` [Hydrogen Bromide], the “Hygroscopic (Yes/No)” value in series [1] is on record as “Yes”. For the same compound, the “Hydrate formation (Yes/No)” value in series [2] is on record as “Yes”.
Take `Cl` [Hydrogen Chloride]: the “Hygroscopic (Yes/No)” value in series [1] is “Yes”. The “Hydrate formation (Yes/No)” value in series [2] is on record as “Yes”.
In the case of `Cc1ncc(C)n2nc(CCc3nc(-c4ccccc4)cn3C)nc12.O=S(=O)(O)O` [Hydrogen sulphate], in series [2], the “Hydrate formation (Yes/No)” value was “Yes”.
Regarding Citrate, the “Hygroscopic (Yes/No)” value in series [1] is listed as “Yes”. Moreover, in series [2], the “Hydrate formation (Yes/No)” value is “Yes”.
Fumarate: in series [2], the “Hydrate formation (Yes/No)” value is recorded as “Yes”.
The same measure, in the same setting: for Glutarate the value was “Yes”; for L(+)-tartrate, “Yes”.
For the compound L(−)-malate, the “Hygroscopic (Yes/No)” value in series [1] is “Yes”. The “Hydrate formation (Yes/No)” value in series [2] is recorded as “Yes”.
Take Maleate: the “Hygroscopic (Yes/No)” value in series [1] is “Yes”. In addition, the “Hydrate formation (Yes/No)” value in series [2] was “Yes”.
As to Malonate, the “Hygroscopic (Yes/No)” value in series [1] was “Yes”. Besides, the “Hydrate formation (Yes/No)” value in series [2] is “Yes”.
In the case of Oxalate, the “Hygroscopic (Yes/No)” value in series [1] is reported as “Yes”. For the same compound, in series [2], the “Hydrate formation (Yes/No)” value was “Yes”.
Take Tosylate: the “Hygroscopic (Yes/No)” value in series [1] was “Yes”. Also, the “Hydrate formation (Yes/No)” value in series [2] is “Yes”.
